This is an account of results in patent publication US9856252B2, “2-(hetero)aryl-benzimidazole and imidazopyridine derivatives as inhibitors of asparagime emethyl transferase” (Cancer Therapeutics CRC Pty Ltd, priority 2013, dated 2018).

Structures are written as SMILES. Counter-ions that a name gives are not always drawn.

The test system of assay [1] is histone H4 Arginine 3 dimethylation mark in TE11 cells. Put plainly: PRMT5 Biomarker Assay. It counts as cell-based. The note with it: Homo sapiens, TE-11; TE11 cell line, 72 hours incubation, Di-Methyl Histone H4R3 ELISA corrected for total protein. Here is the method: Compounds of the invention may be tested for potency to inhibit the histone H4 Arginine 3 dimethylation mark in the following assay:
The cell line TE11 was seeded at a density of 12,000 cells per well in 96 well tissue culture plates in DME medium and 10% foetal bovine serum, and allowed to adhere overnight under standard culture conditions (37° C., 5% CO2). […] The methylation level was determined using the EpiQuik™ Global Di-Methyl Histone H4R3 Quantification ELISA Kit (Epigentek, Farmingdale, N.Y.) as per the manufacturer's recommendations; in parallel the total protein amount in the lysate was quantified using a Lowry protein assay.
A general note: ELISA stands for enzyme-linked immunosorbent assay.

For assay [2], the target named is Full-length PRMT5 enzyme (NCBI Reference sequence NP_006100.2) co-expressed with His6-MEP50 (Homo sapiens (Human), UniProt O14744). The assay is described as follows: PRMT5 Biochemical Assay. Conditions: histone H4 derived peptide substrate 200 nM, 1 μM S-Adenosyl methionine, 4 hours at 37° C., Transcreener EPIGEN fluorescence polarisation. The method, then:
Compounds of the invention may be tested for in vitro activity in the following assay: A histone H4 derived peptide is used as substrate (amino acid sequence: […]N H2). Full-length PRMT5 enzyme (NCBI Reference sequence NP_006100.2) was co-expressed with His6-MEP50 in insect cells and purified via Nickel immobilized metal affinity and gel filtration chromatography (“the enzyme”).
The 6 μL assay reactions are run in Greiner brand black 384-well low volume plates. All reactions contained assay buffer (phosphate buffered saline, 0.01% (v/v) Tween-20, 0.01% (w/v) albumin from chicken egg white, 1 mM dithiothreitol, 200 nM peptide substrate, 1 μM S-Adenosyl methionine, and 15 ng/reaction enzyme, with the enzyme being omitted from negative control reactions. Compounds were added in a volume of 100 nL from dilution series prepared in DMSO, positive and negative control reactions receiving the same volume DMSO without compound. The plates were sealed with adhesive seals and incubated for 4 hours at 37° C. Reaction progress was measured using the Transcreener™ EPIGEN methyltransferase assay (BellBrook Labs, Madison, Wis.) as recommended by the manufacturer. To each reaction 2 μL detection mix were added, containing coupling enzymes, fluorescence polarisation tracer, and AMP antibody. Plates were incubated for 90 minutes before being read on a PerkinElmer EnVision™ plate reader in fluorescence polarisation mode.
In general terms: In fluorescence polarisation assays a small probe gives low polarisation when free and higher when bound to something large.

For orientation: IC50 means the concentration that gives 50% inhibition. A lower IC50 goes with higher potency.

Chain of Full-length PRMT5 enzyme (NCBI Reference sequence NP_006100.2) co-expressed with His6-MEP50 (O14744 whole entry): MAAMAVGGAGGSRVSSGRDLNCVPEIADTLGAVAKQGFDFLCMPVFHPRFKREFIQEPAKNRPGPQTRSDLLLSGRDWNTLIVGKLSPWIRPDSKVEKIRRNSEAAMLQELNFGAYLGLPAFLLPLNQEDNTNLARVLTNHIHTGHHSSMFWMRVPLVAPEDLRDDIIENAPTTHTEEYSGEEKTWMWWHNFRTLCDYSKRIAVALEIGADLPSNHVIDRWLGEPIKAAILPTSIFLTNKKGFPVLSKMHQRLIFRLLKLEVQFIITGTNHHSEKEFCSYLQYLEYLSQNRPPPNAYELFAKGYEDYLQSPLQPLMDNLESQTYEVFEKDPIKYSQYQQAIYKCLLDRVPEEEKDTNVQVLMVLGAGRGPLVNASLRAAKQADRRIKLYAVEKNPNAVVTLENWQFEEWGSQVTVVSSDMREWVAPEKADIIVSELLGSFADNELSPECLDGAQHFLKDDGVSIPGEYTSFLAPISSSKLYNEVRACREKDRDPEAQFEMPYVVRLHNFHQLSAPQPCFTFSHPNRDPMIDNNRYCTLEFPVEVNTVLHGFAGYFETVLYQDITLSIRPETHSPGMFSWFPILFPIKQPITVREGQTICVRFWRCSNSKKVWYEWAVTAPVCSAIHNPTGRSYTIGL
Chain of Full-length PRMT5 enzyme (NCBI Reference sequence NP_006100.2) co-expressed with His6-MEP50 (Q9BQA1 whole entry partner): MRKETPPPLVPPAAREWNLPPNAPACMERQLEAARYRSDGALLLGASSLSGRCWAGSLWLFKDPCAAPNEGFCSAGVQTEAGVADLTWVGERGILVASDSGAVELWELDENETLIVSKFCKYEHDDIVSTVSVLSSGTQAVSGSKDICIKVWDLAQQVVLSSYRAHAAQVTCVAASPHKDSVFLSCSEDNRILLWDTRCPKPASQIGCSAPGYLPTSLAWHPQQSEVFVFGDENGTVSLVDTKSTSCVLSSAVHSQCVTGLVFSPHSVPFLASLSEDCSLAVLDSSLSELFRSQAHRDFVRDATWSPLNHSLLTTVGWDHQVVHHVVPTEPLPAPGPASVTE

`c1ccc(OCc2ccc(-c3nc4cc(C5CCNCC5)cnc4[nH]3)cc2)cc1` [Example 9, 2-(4-(phenoxymethyl)phenyl)-6-(piperidin-4-yl)-3H-imidazo[4,5-b]pyridine] came in with an IC50 in assay [1] of 0.645 µM.

In the case of `c1ccc(COc2ccc(-c3nc4ccc(C5CCNCC5)nc4[nH]3)cc2)cc1` [Example 40, 2-(4-(benzyloxy)phenyl)-5-(piperidin-4-yl)-3H-imidazo[4,5-b]pyridine], the IC50 in assay [1] stood at 0.731 µM; in assay [2] it was 0.223 µM.

As for `C1=C(c2ccc3nc(-c4ccc(OCc5ccccc5)cc4)[nH]c3n2)CCNC1` [Example 45, 2-(4-(benzyloxy)phenyl)-5-(1,2,3,6-tetrahydropyridin-4-yl)-3H-imidazo[4,5-b]pyridine], the IC50 in assay [1] was found to be 1.21 µM.

As for `c1ccc(OCc2ccc(-c3nc4cc(C5CCCNC5)cnc4[nH]3)cc2)cc1` (stereo not shown) [Example 16, 2-(4-(phenoxymethyl)phenyl)-6-(piperidin-3-yl)-3H-imidazo[4,5-b]pyridine], the IC50 was found to be 1.83 µM in assay [1] and 0.107 µM in assay [2].

`Clc1ccnc2[nH]c(-c3ccc(OCc4ccccc4)cc3)nc12` [Example 4, 2-(4-(benzyloxy)phenyl)-7-chloro-3H-imidazo[4,5-b]pyridine] had an IC50 in assay [1] of 0.127 µM.

Compound `CCOC(=O)N1CCC(c2ccc3nc(-c4ccc(OCc5ccccc5)cc4)[nH]c3n2)CC1` [Example 88, ethyl 4-(2-(4-(benzyloxy)phenyl)-3H-imidazo[4,5-b]pyridin-5-yl)piperidine-1-carboxylate] showed an IC50 in assay [2] of 0.477 µM. That is a sub-micromolar value.

`CN(C)C(=O)Cc1ccnc2[nH]c(-c3ccc(OCc4ccccc4)cc3)nc12` [Example 94, 2-(2-(4-(benzyloxy)phenyl)-3H-imidazo[4,5-b]pyridin-7-yl)-N,N-dimethylacetamide] returned an IC50 in assay [2] of 1.02 µM.

`O=S(=O)(C1CC1)N1CCN(c2ccc3nc(-c4ccc(OCc5ccccc5)cc4)[nH]c3n2)CC1` [Example 92, 2-(4-(benzyloxy)phenyl)-5-(4-(cyclopropylsulfonyl)piperazin-1-yl)-3H-imidazo[4,5-b]pyridine] had an IC50 in assay [2] of 0.279 µM.

Compound `COC(=O)c1cc(-c2nc3cc(C4CCNCC4)cnc3[nH]2)ccc1OCc1ccccc1` [Example 66, methyl 2-(benzyloxy)-5-(6-(piperidin-4-yl)-3H-imidazo[4,5-b]pyridin-2-yl)benzoate dihydrogen chloride salt] had an IC50 in assay [2] of 0.608 µM.

In assay [2], `CNC(=O)Cc1ccnc2[nH]c(-c3ccc(OCc4ccccc4)cc3)nc12` [Example 93, 2-(2-(4-(benzyloxy)phenyl)-3H-imidazo[4,5-b]pyridin-7-yl)-N-methylacetamide] came in with an IC50 of 2.14 µM. This IC50 is about 3.5-fold higher than that of the compound before.

For the compound `Cn1cc(-c2cc(-c3nc4cc(C5CCNCC5)cnc4[nH]3)ccc2OCc2ccccc2)cn1` [Example 63, 2-(4-(benzyloxy)-3-(1-methyl-1H-pyrazol-4-yl)phenyl)-6-(piperidin-4-yl)-3H-imidazo[4,5-b]pyridine], it took 0.215 µM to reach half-maximal inhibition in assay [2] (IC50). This IC50 is about 10-fold lower than that of the compound before.

In the case of `Fc1ccc(COc2ccc(-c3nc4ccc(N5CCNCC5)nc4[nH]3)cc2)cc1` [Example 59], the concentration for half-maximal inhibition (IC50) in assay [2] turned out to be 0.535 µM.

The compound `Fc1ccccc1COc1ccc(-c2nc3ccc(N4CCNCC4)nc3[nH]2)cc1` [Example 57] showed an IC50 in assay [2] of 0.981 µM. Against the preceding compound, the IC50 is about 1.8-fold higher.

For `c1ccc(COc2ccc(-c3nc4ccc(N5CCSCC5)nc4[nH]3)cc2)cc1` [Example 23, 4-(2-(4-(benzyloxy)phenyl)-3H-imidazo[4,5-b]pyridin-5-yl)thiomorpholine], in assay [2], 0.497 µM corresponded to half-maximal inhibition (IC50).

For `O=C(Nc1ccc(-c2nc3cccnc3[nH]2)cc1)c1ccccc1` [Example 3, N-(4-(3H-imidazo[4,5-b]pyridin-2-yl)phenyl)benzamide], the IC50 in assay [2] came to 3.97 µM. This IC50 is about 8-fold higher than that of the compound before.

In assay [2], `FC(F)(F)c1ccccc1COc1ccc(-c2nc3ccc(N4CCNCC4)nc3[nH]2)cc1` [Example 60] gave an IC50 of 1.66 µM.

As for `CC(=O)N1CC=C(c2ccc3nc(-c4ccc(OCc5ccccc5)cc4)[nH]c3n2)CC1` [Example 98, 1-(4-(2-(4-(benzyloxy)phenyl)-3H-imidazo[4,5-b]pyridin-5-yl)-3,6-dihydropyridin-1 (2H)-yl)ethan-1-one], half-maximal inhibition in assay [2] (IC50) was put at 0.166 µM.

For `CC(C)(C)OC(=O)N1CCC(Nc2ccc3nc(-c4ccc(OCc5ccccc5)cc4)[nH]c3n2)CC1` [Example 32, tert-butyl 4-((2-(4-(benzyloxy)phenyl)-3H-imidazo[4,5-b]pyridin-5-yl)amino)piperidine-1-carboxylate], in assay [2], the IC50 turned out to be 0.827 µM.

`FC(F)(F)c1ccc(COc2ccc(-c3nc4ccc(N5CCNCC5)nc4[nH]3)cc2)cc1` [Example 56] gave a 50% inhibitory concentration (IC50) in assay [2] of 1.86 µM.

Take `c1ccc(COc2ccc(-c3nc4cc(C5CCNCC5)cnc4[nH]3)cc2-c2cccnc2)cc1` [Example 64, 2-(4-(benzyloxy)-3-(pyridin-3-yl)phenyl)-6-(piperidin-4-yl)-3H-imidazo[4,5-b]pyridine]: the IC50 in assay [2] turned out to be 0.336 µM.

The compound `NCC1CCN(c2ccc3nc(-c4ccc(OCc5ccccc5)cc4)[nH]c3n2)CC1` [Example 55] had an IC50 in assay [2] of 0.426 µM.

Compound `c1ccc(OCc2ccc(-c3nc4cccnc4[nH]3)cc2)cc1` [Example 1, 2-(4-(phenoxymethyl)phenyl)-3H-imidazo[4,5-b]pyridine] gave an IC50 in assay [2] of 1.49 µM. This IC50 lies about 3.5-fold higher than the previous one.

In turn, `CC(C)(C)OC(=O)NCC1CCCN(c2ccc3nc(-c4ccc(OCc5ccccc5)cc4)[nH]c3n2)C1` (stereo not shown) [Example 28, tert-butyl ((1-(2-(4-(benzyloxy)phenyl)-3H-imidazo[4,5-b]pyridin-5-yl)piperidin-3-yl)methyl)carbamate] yielded an IC50 in assay [2] of 1.68 µM.

Turning to `c1ccc(OCc2ccc(-c3nc4ccc(C5CCNCC5)nc4[nH]3)cc2)cc1` [Example 85, 2-(4-(phenoxymethyl)phenyl)-5-(piperidin-4-yl)-3H-imidazo[4,5-b]pyridine], the IC50 in assay [2] was 0.151 µM.

`c1ccc(CSc2ccc(-c3nc4ccc(N5CCNCC5)nc4[nH]3)cc2)cc1` [Example 96, 2-(4-(benzylthio)phenyl)-5-(piperazin-1-yl)-3H-imidazo[4,5-b]pyridine]: the half-inhibitory concentration (IC50) in assay [2] stood at 0.585 µM. This IC50 is about 3.9-fold higher than that of the compound before.

As for `CN(c1ccc2nc(-c3ccc(OCc4ccccc4)cc3)[nH]c2n1)C1CCCN(C(=O)OC(C)(C)C)C1` (stereo not shown) [Example 30, tert-butyl 3-((2-(4-(benzyloxy)phenyl)-3H-imidazo[4,5-b]pyridin-5-yl)(methyl)amino)piperidine-1-carboxylate], in assay [2], it took 2.66 µM to reach half-maximal inhibition (IC50). This IC50 lies about 4.5-fold higher than the previous one.

As to `c1ccc(COc2ccc(-c3nc4ccc(NCC5CCNCC5)nc4[nH]3)cc2)cc1` [Example 52], the IC50 in assay [2] was determined as 0.935 µM.

As to `c1ccc(COc2ccc(-c3nc4ccc(Nc5cn[nH]c5)nc4[nH]3)cc2)cc1` [Example 20, 2-(4-(benzyloxy)phenyl)-N-(1H-pyrazol-4-yl)-3H-imidazo[4,5-b]pyridin-5-amine], the half-inhibitory concentration (IC50) in assay [2] stood at 0.847 µM.

In assay [2], `c1ccc(COc2ccc(-c3nc4ccc(C5CC5)nc4[nH]3)cc2)cc1` [Example 105] returned a 50% inhibitory concentration (IC50) of 1.5 µM.

Turning to `CCS(=O)(=O)N1CCN(c2ccc3nc(-c4ccc(OCc5ccccc5)c(OC)c4)[nH]c3n2)CC1` [Example 75, 2-(4-(benzyloxy)-3-methoxyphenyl)-5-(4-(ethylsulfonyl)piperazin-1-yl)-3H-imidazo[4,5-b]pyridine], the IC50 in assay [2] is 0.306 µM. This IC50 is about 4.9-fold lower than that of the compound before.

In the case of `O=C1CNCCN1c1ccc2nc(-c3ccc(OCc4ccccc4)cc3)[nH]c2n1` [Example 21, 1-(2-(4-(benzyloxy)phenyl)-3H-imidazo[4,5-b]pyridin-5-yl)piperazin-2-one], inhibition in assay [2] was half-maximal at 0.774 µM (IC50).

As to `CS(=O)(=O)N1CCN(c2ccc3nc(-c4ccc(OCc5ccccc5)cc4)[nH]c3n2)CC1` [Example 91, 2-(4-(benzyloxy)phenyl)-5-(4-(methylsulfonyl)piperazin-1-yl)-3H-imidazo[4,5-b]pyridine], the IC50 in assay [2] stood at 0.82 µM.
